Results taken from ChEMBL document CHEMBL1156829 (Proc Natl Acad Sci U S A, 2008).

Experiments:
[1] = NOVARTIS: Cytotoxicity against human hepatocellular carcinoma cell line (Huh7); type: toxicity, cell-based, Huh-7; settings: Huh7 cells (hepatocellular carcinoma cell line)
Plasmodium falciparum [2] = assay: NOVARTIS: Inhibition of Plasmodium falciparum 3D7 (drug-susceptible) proliferation in erythrocyte-based infection assay; type: functional, organism-based; settings: Plasmodium falciparum, 3D7
Plasmodium falciparum [3] = assay: NOVARTIS: Inhibition of Plasmodium falciparum W2 (drug-resistant) proliferation in erythrocyte-based infection assay; type: functional, organism-based; settings: Plasmodium falciparum, W2; read-out: EC50

Row | SMILES | CC50 [1] [µM] | EC50 (Plasmodium falciparum [2]) [µM] | EC50 (Plasmodium falciparum [3]) [µM]
1 | COc1cc(CNc2ccc3nc(N)nc(N)c3c2)cc(OC)c1OC | > 10 | > 1.03 | > 1.25
2 | O=c1c(=Cc2ccc(-c3ccc([N+](=O)[O-])cc3Cl)o2)sc2nc3ccccc3n12 | > 10 | > 1.13 | > 1.25
3 | COc1ccc(-c2ccc(C=C3C(=O)NC(=S)NC3=O)o2)cc1Cl | > 10 | > 1.04 | > 1.25
4 | CN(C)CCN1CCN(c2cncc(-c3cccnc3)n2)CC1 | > 10 | > 1.11 | > 1.25
5 | CCNC(=O)NS(=O)(=O)c1cnccc1Sc1cccc(C)c1 | > 10 | > 1.03 | > 1.25
6 | N#Cc1nc(C(=O)N2CCOCC2)oc1N1CCOCC1 | > 10 | 0.995 | > 1.25
7 | CC1CCCCN1CCCNc1ncc(C(=O)NCCc2ccccc2)c(Nc2ccccc2)n1 (stereo not drawn) | > 10 | 1.12 | > 1.25
8 | COc1cc2c(cc1OC)C(=NN=C1NC(C)(C)Cc3ccccc31)NC(C)(C)C2 | > 10 | 1.03 | > 1.25
9 | CC(C)CC1=Nc2cc(C(=O)NC(C)C)ccc2CN1Cc1ccccc1 | > 10 | > 1.03 | > 1.25
10 | COc1cc2c(cc1/C=C(/C#N)c1cccc(C)c1)OCO2 | > 10 | > 1.06 | > 1.25
11 | CCOc1ccc(N2C(=O)c3ccccc3NC2(C)C)cc1 | > 100 | > 9.97 | > 12.5
12 | Cc1nn(-c2cc(N3CCOCC3)ccc2[N+](=O)[O-])c(=O)c2ccccc12 | > 10 | > 0.995 | > 1.25
13 | CCOC(=O)c1ccc(NC(=O)c2sc(NC(=O)c3cc(OC)c(OC)c(OC)c3)c(C(=O)OCC)c2C)cc1 | > 10 | > 0.995 | > 1.25
14 | COc1ccc(CN2CCc3nnc(CCc4ccccc4)n3CC2)c(F)c1 | > 10 | > 1.06 | > 1.25
15 | COc1ccc2nc(NC(=O)c3ccc(C#N)cc3)sc2c1 | > 10 | > 1.06 | > 1.25
16 | O=C(Nc1ccc2c(c1)S(=O)(=O)c1cc(NC(=O)c3cccs3)ccc1-2)c1cccs1 | > 10 | 1.11 | > 1.25
17 | CCOc1ccc2cc(C#N)c(SCC(=O)N3CC(=O)Nc4ccccc43)nc2c1 | > 10 | > 1.11 | > 1.25
18 | CC1CCCN(Cc2nnnn2-c2ccc(Cl)cc2)C1 (stereo not drawn) | > 10 | > 1.01 | > 1.25
19 | COC(=O)C1=C(C)N/C(=C/c2cc(C)n(-c3ccc(Cl)c(Cl)c3)c2C)C1=O | > 10 | > 1.02 | > 1.25
20 | O=C(Nc1ccccc1Cl)NC1(C(=O)NCC2CCCO2)CCCCC1 (stereo not drawn) | > 10 | > 0.984 | > 1.25
21 | CC(C)CNC(=O)c1cnc(NCCCN(C)C)nc1NCCc1ccccc1 | > 10 | 0.983 | > 1.25
22 | CCOC(=O)c1c(NC(=O)Cc2ccc([N+](=O)[O-])cc2)sc2c1CCCC2 | > 10 | > 1.06 | > 1.25
23 | COc1ccccc1-c1nnc(Nc2nc3cc4c(cc3s2)OCO4)o1 | > 10 | > 1.05 | > 1.25
24 | COc1ccc(CN2CCN(C(=O)c3sc4ncn(Cc5ccccc5F)c(=O)c4c3C)CC2)c(OC)c1OC | > 10 | 1.01 | > 1.25
25 | Cc1c(Cl)cccc1NC(=O)CCC(=O)NNC(=O)c1ccccc1 | > 10 | > 1.01 | > 1.25
26 | CNC(=O)[C@@H]1C[C@@H](NCc2ccc(OC)cc2)CN1Cc1ccccc1 | > 10 | > 1.1 | > 1.25

Row | SMILES | CC50 [1] [µM] | EC50 (Plasmodium falciparum [2]) [µM] | EC50 (Plasmodium falciparum [3]) [µM]
27 | COCCn1c(=S)[nH]c2cc(C(=O)NCCc3ccc(S(N)(=O)=O)cc3)ccc2c1=O | > 10 | > 1.08 | > 1.25
28 | COc1ccc(C2C(C(=O)O)c3ccccc3C(=O)N2c2ccc(C)cc2)cc1OC (stereo not drawn) | > 10 | > 1.08 | > 1.25
29 | O=c1c2c3c(sc2ncn1CC1CCCCC1)CC(NCc1cccnc1)CC3 (stereo not drawn) | > 10 | > 1.04 | > 1.25
30 | O=c1c2c3c(sc2[nH]c(=S)n1C1CCCCC1)CN(Cc1ccccc1)CC3 | > 10 | > 1.04 | > 1.25
31 | CC1CC(C)(C)NC(=S)N1CCC(=O)NCCc1ccccc1 (stereo not drawn) | > 10 | 1.01 | > 1.25
32 | CC(C)CNc1nc(NCCN2CCCCC2)ncc1C(=O)NCc1ccccc1 | > 10 | 1 | > 1.25
33 | COc1ccc(CCNc2nc(NCCCn3ccnc3)ncc2C(=O)NCc2ccccc2)cc1OC | > 10 | 1 | > 1.25
34 | CCOC(=O)N1CCN(C(=O)CCCCn2c(=S)[nH]c3ccsc3c2=O)CC1 | > 10 | > 1.13 | > 1.25
35 | CCOC(=O)c1sc(NC(=O)CSc2nnc(CNC(=O)COc3ccccc3)n2C)c(C(=O)OCC)c1C | > 10 | > 1.08 | > 1.25
36 | Cc1ccc(S(=O)(=O)Nc2nc3n(n2)C(c2ccccc2)C=C(c2ccccc2)N3)cc1 (stereo not drawn) | > 10 | > 1.07 | > 1.25
37 | CCC(C)(C#CCN1CCCC1)OC(C)=O (stereo not drawn) | > 10 | > 1.05 | > 1.25
38 | CC(=O)OC1C(NC(=O)c2cc([N+](=O)[O-])c(N(C)C)c([N+](=O)[O-])c2)OC(C(=O)N2CCOCC2)C(OC(C)=O)C1OC(C)=O (stereo not drawn) | > 10 | > 1.09 | > 1.25
39 | Cc1cc2ncn(N=Cc3cccnc3)c2cc1C | > 10 | > 1.02 | > 1.25
40 | COc1ccc(/C=C\c2cc[n+](C)cc2)cc1OC | > 10 | 1.11 | > 1.25
41 | Cc1ccc(-c2nn(CC(=O)Nc3cccc(C)c3)c(=O)c3ccccc23)cc1 | > 10 | > 1.09 | > 1.25
42 | CCOC(=O)C[n+]1cc(CC)sc1N | > 10 | > 1.07 | > 1.25
43 | COc1ccccc1NC(=O)c1n[nH]c(=O)c2ccccc12 | > 10 | > 1.06 | > 1.25
44 | CCCCCOC(=O)C1=C(C)Nc2ncnn2C1c1cccc([N+](=O)[O-])c1 (stereo not drawn) | > 10 | > 0.988 | > 1.25
45 | O=C1NCCCCC1N(Cc1cccc(Oc2ccccc2)c1)C(=O)c1ccc(F)cc1 (stereo not drawn) | > 10 | > 1.06 | > 1.25
46 | CN1CCN(C(=O)c2cccc(-c3nc(-c4ccncc4)cnc3N)c2)CC1 | > 10 | > 1 | > 1.25
47 | CC(=O)Nc1cccc(NC(=O)CSc2ccc3nnc(-c4ccc(F)cc4)n3n2)c1 | > 10 | > 1.05 | > 1.25
48 | Cn1c(=O)n(C)c2cc(C=NN=c3[nH]cc(-c4ccccc4)s3)ccc21 | > 10 | > 1.07 | > 1.25
49 | FC(F)(F)COc1ccc(OCC(F)(F)F)c(-c2ncnn2-c2ccccc2)c1 | > 100 | > 9.91 | > 12.5
50 | C#CC(C)(C)NS(=O)(=O)c1cc(-c2nnc(Nc3cccc(C)c3)c3ccccc23)ccc1C | > 10 | 1.04 | > 1.25
51 | COc1ccc(-n2c(=S)[nH]c3cc(C(=O)Nc4cccc(C)c4)ccc3c2=O)cc1OC | > 10 | > 1.04 | > 1.25
